Values of other authors, collected in patent EP0773217A1, “Benzothiphene derivatives for treating resistant tumors” (ELI LILLY AND COMPANY, priority 1995, dated 1997).
Values after ≈ are worked out from the molar mass of the structure shown.

Legend:
HL60/S cells = conditions: no P-glycoprotein expression
HL60/Adr cells = HL60/Adr cells (resistant to doxorubicin, express p190, no P-glycoprotein)

IC50 (HL60/S cells) | IC50 (HL60/Adr cells) | SMILES
0.39 µg/mL (≈ 0.663 µM) | > 10 µg/mL | COc1cc([C@@H]2c3cc4c(cc3[C@@H](O[C@@H]3O[C@@H]5CO[C@@H](C)O[C@H]5[C@H](O)[C@H]3O)[C@H]3COC(=O)[C@H]23)OCO4)cc(OC)c1O [ETOPOSIDE™, etoposide]
0.011 µg/mL (≈ 0.0202 µM) | 2.2 µg/mL (≈ 4.05 µM) | COc1cccc2c1C(=O)c1c(O)c3c(c(O)c1C2=O)C[C@@](O)(C(=O)CO)C[C@@H]3O[C@H]1C[C@H](N)[C@H](O)[C@H](C)O1 [ADRIAMYCIN™, Doxorubicin]
